Source: ChEMBL document CHEMBL2021784, “Geopyxins A-E, ent-kaurane diterpenoids from endolichenic fungal strains Geopyxis aff. majalis and Geopyxis sp. AZ0066: structure-activity relationships of geopyxins and their analogues” (J Nat Prod, 2012)
The source made the active and inactive calls. The rule behind the calls is not given here.

What was measured:
Assay type in all cases: functional, cell-based
NCI-H460 [1] = assay: Cytotoxicity against human NCI-H460 cells after 72 hrs by Alamar blue assay; conditions: NCI-H460, 72 h
SF-268 [2] = assay: Cytotoxicity against human SF268 cells after 72 hrs by Alamar blue assay; conditions: SF-268, 72 h
MCF7 [3] = assay: Cytotoxicity against human MCF7 cells after 72 hrs by Alamar blue assay; conditions: MCF7, 72 h
[4] = Cytotoxicity against human PC3M cells after 72 hrs by Alamar blue assay; conditions: PC-3M
MDA-MB-231 [5] = assay: Cytotoxicity against human MDA-MB-231 cells after 72 hrs by Alamar blue assay; conditions: MDA-MB-231, 72 h
Fibroblast = assay: Induction of heat shock response in mouse fibroblasts expressing GFP at 2.5 uM after overnight incubation by fluorescence assay
NCI-H460 [6] = assay: Cytotoxicity against human NCI-H460 cells at 5 uM after 72 hrs by Alamar blue assay
PC-3M = assay: Cytotoxicity against human PC3M cells at 5 uM after 72 hrs by Alamar blue assay
MCF7 [7] = assay: Cytotoxicity against human MCF7 cells at 5 uM after 72 hrs by Alamar blue assay
SF-268 [8] = assay: Cytotoxicity against human SF268 cells at 5 uM after 72 hrs by Alamar blue assay
MDA-MB-231 [9] = assay: Cytotoxicity against human MDA-MB-231 cells at 5 uM after 72 hrs by Alamar blue assay

| Compound | IC50 (NCI-H460 [1]) [nM] | IC50 (SF-268 [2]) [nM] | IC50 (MCF7 [3]) [nM] | IC50 [4] [nM] | IC50 (MDA-MB-231 [5]) [nM] | Activity (Fibroblast) | Activity (NCI-H460 [6]) | Activity (PC-3M) | Activity (MCF7 [7]) | Activity (SF-268 [8]) | Activity (MDA-MB-231 [9]) |
| --- | --- | --- | --- | --- | --- | --- | --- | --- | --- | --- | --- |
| C=C1C(=O)[C@]23C[C@H]1CC[C@H]2[C@]1(C)[C@@H](OC(C)=O)CC[C@@](C)(C(=O)OC)[C@H]1C[C@@H]3OC(C)=O | 1260 | 1180 | 1180 | 2310 | 1930 | inactive |  |  |  |  |  |
| C=C1C(=O)[C@]23C[C@H]1CC[C@H]2[C@]1(C)[C@@H](O)CC[C@@](C)(C(=O)OC)[C@H]1C[C@@H]3O [METHYLGEOPYXIN A] | 1080 | 720 | 790 | 2270 | 730 | inactive |  |  |  |  |  |
| C[C@]12[C@@H]3CC[C@@H]4C[C@]3(C(=O)[C@@H]4CO)[C@@H](O)C[C@@H]1[C@](C)(C(=O)O)CC[C@@H]2O |  |  |  |  |  |  | inactive | inactive | inactive | inactive | inactive |
| C=C1C(=O)[C@]23C[C@H]1CC[C@H]2[C@]1(C)C(=O)CC[C@@](C)(C(=O)O)[C@H]1C[C@@H]3O |  |  |  |  |  |  | inactive | inactive | inactive | inactive | inactive |
| COc1cccc2c1C(=O)c1c(O)c3c(c(O)c1C2=O)C[C@@](O)(C(=O)CO)C[C@@H]3O[C@H]1C[C@H](N)[C@H](O)[C@H](C)O1 [DOXORUBICIN] | 420 | 620 | 420 | 240 | 580 |  |  |  |  |  |  |
| C=C1C(=O)[C@]23C[C@H]1CC[C@H]2[C@]1(C)[C@@H](OC(C)=O)CC[C@@](C)(C(=O)O)[C@H]1C[C@@H]3OC(C)=O |  |  |  |  |  |  | inactive | inactive | inactive | inactive | inactive |
| C=C1C(=O)[C@]23C[C@H]1CC[C@H]2[C@]1(C)[C@@H](OC(C)=O)CC[C@@](C)(C(=O)O)[C@H]1C[C@@H]3O | 3520 | 2370 | 3480 | 3880 | 4110 | inactive |  |  |  |  |  |
| C=C1C(=O)[C@]23C[C@H]1CC[C@H]2[C@]1(C)C(=O)CC[C@@](C)(C(=O)OC)[C@H]1C[C@@H]3O [METHYLGEOPYXIN C] | 2280 | 1560 | 1670 | 3630 | 3380 | inactive |  |  |  |  |  |
| C=C1C(=O)[C@]23C[C@H]1CC[C@H]2[C@]1(C)CCC[C@@](C)(C(=O)OC)[C@H]1C[C@@H]3O [METHYLGEOPYXIN B] | 920 | 690 | 630 | 1480 | 910 | inactive |  |  |  |  |  |
| C=C1C(=O)[C@]23C[C@H]1CC[C@H]2[C@]1(C)[C@@H](O)[C@@H](O)C[C@@](C)(C(=O)OC)[C@H]1C[C@@H]3O [METHYLGEOPYXIN E] | 2270 | 1020 | 2080 | 3990 | 3810 | inactive |  |  |  |  |  |
| C=C1C(=O)[C@]23C[C@H]1CC[C@H]2[C@]1(C)[C@@H](O)CC[C@@](C)(C(=O)O)[C@H]1C[C@@H]3O |  |  |  |  |  |  | inactive | inactive | inactive | inactive | inactive |
| COC(=O)[C@]1(C)CC[C@H](O)[C@@]2(C)[C@@H]3CC[C@@H]4C[C@]3(C(=O)[C@@H]4CO)[C@@H](O)C[C@@H]21 |  |  |  |  |  |  | inactive | inactive | inactive | inactive | inactive |
| C=C1C(=O)[C@]23C[C@H]1CC[C@H]2[C@]1(C)CCC[C@@](C)(C(=O)O)[C@H]1C[C@@H]3O [GEOPYXIN B] | 2250 | 2350 | 4320 | 5410 | 3310 | Active |  |  |  |  |  |
| C=C1C(=O)[C@]23C[C@H]1CC[C@H]2[C@]1(C)[C@@H](O)[C@@H](O)C[C@@](C)(C(=O)O)[C@H]1C[C@@H]3O |  |  |  |  |  |  | inactive | inactive | inactive | inactive | inactive |
| C=C1C(=O)[C@]23C[C@H]1CC[C@H]2[C@]1(C)[C@@H](OC(C)=O)CC[C@@](C)(C(=O)OC)[C@H]1C[C@@H]3O | 820 | 660 | 530 | 1540 | 1150 | Active |  |  |  |  |  |
| C=C1C(=O)[C@]23C[C@H]1C[C@H](O)[C@H]2[C@]1(C)CCC[C@@](C)(C(=O)O)[C@H]1C[C@@H]3O |  |  |  |  |  |  | inactive | inactive | inactive | inactive | inactive |
